melting point	Compound
149 to 151 °C	c1cc(-c2cnn3cc(-c4ccc(OCCN5CCOCC5)cc4)cnc23)cs1 [Example 3, 3-(3-thienyl)-6-(4-(2-(4-morpholinyl)ethoxy)phenyl)pyrazolo(1,5-A)pyrimidine]
141 to 143 °C	c1cc(-c2cnn3cc(-c4ccc(OCCN5CCCCC5)cc4)cnc23)cs1 [Example 4, 6-[4-(2-piperidin-1-yl-ethoxy)-phenyl]-3-thiophen-3-yl-pyrazolo[1,5-a]pyrimidine]
